Tests used:
HepG2 = test: Growth inhibition of human HepG2 cells assessed as reduction in cell viability at 100 ug/ml by SRB colorimetric assay relative to control; type: functional; conditions: read-out: GI
NCI-H460 = test: Growth inhibition of human NCI-H460 cells assessed as reduction in cell viability at 100 ug/ml by SRB colorimetric assay relative to control; type: functional; conditions: read-out: GI
HCT-116 = test: Growth inhibition of human HCT-116 cells assessed as reduction in cell viability at 100 ug/ml by SRB colorimetric assay relative to control; type: functional; conditions: read-out: GI
Huh-7 = test: Growth inhibition of human Huh-7 cells assessed as reduction in cell viability at 100 ug/ml by SRB colorimetric assay relative to control; type: functional; conditions: read-out: GI
Caco-2 = test: Growth inhibition of human Caco-2 cells assessed as reduction in cell viability at 100 ug/ml by SRB colorimetric assay relative to control; type: functional; conditions: read-out: GI
MCF7 = test: Growth inhibition of human MCF7 cells assessed as reduction in cell viability at 100 ug/ml by SRB colorimetric assay relative to control; type: functional; conditions: read-out: GI
PC-3 = test: Growth inhibition of human PC-3 cells assessed as reduction in cell viability at 100 ug/ml by SRB colorimetric assay relative to control; type: functional; conditions: read-out: GI
MG-63 = test: Growth inhibition of human MG-63 cells assessed as reduction in cell viability at 100 ug/ml by SRB colorimetric assay relative to control; type: functional; conditions: read-out: GI
MDA-MB-231 = test: Growth inhibition of human MDA-MB-231 cells assessed as reduction in cell viability at 100 ug/ml by SRB colorimetric assay relative to control; type: functional; conditions: read-out: GI
BT-474 = test: Growth inhibition of human BT-474 cells assessed as reduction in cell viability at 100 ug/ml by SRB colorimetric assay relative to control; type: functional; conditions: read-out: GI
HNO 97 cell line = test: Growth inhibition of human HNO 97 cell line assessed as reduction in cell viability at 100 ug/ml by SRB colorimetric assay relative to control; type: functional; conditions: read-out: GI
A549 = test: Growth inhibition of human A549 cells assessed as reduction in cell viability at 100 ug/ml by SRB colorimetric assay relative to control; type: functional; conditions: read-out: GI
[1] = Growth inhibition of human Oral epithelial cell assessed as reduction in cell viability at 100 ug/ml by SRB colorimetric assay relative to control; type: toxicity, cell-based; conditions: oral epithelial cells, at 100 µg/mL, read-out: GI
A-375 = test: Growth inhibition of human A-375 cells assessed as reduction in cell viability at 100 ug/ml by SRB colorimetric assay relative to control; type: functional; conditions: read-out: GI
[2] = target: DNA topoisomerase 2-beta (Homo sapiens) (UniProt Q02880); test: Inhibition of human DNA topoisomerase 2-beta by ELISA method relative to control; conditions: concentration not given here
DNA topoisomerase 2-beta (Homo sapiens), sequence (Q02880 whole entry): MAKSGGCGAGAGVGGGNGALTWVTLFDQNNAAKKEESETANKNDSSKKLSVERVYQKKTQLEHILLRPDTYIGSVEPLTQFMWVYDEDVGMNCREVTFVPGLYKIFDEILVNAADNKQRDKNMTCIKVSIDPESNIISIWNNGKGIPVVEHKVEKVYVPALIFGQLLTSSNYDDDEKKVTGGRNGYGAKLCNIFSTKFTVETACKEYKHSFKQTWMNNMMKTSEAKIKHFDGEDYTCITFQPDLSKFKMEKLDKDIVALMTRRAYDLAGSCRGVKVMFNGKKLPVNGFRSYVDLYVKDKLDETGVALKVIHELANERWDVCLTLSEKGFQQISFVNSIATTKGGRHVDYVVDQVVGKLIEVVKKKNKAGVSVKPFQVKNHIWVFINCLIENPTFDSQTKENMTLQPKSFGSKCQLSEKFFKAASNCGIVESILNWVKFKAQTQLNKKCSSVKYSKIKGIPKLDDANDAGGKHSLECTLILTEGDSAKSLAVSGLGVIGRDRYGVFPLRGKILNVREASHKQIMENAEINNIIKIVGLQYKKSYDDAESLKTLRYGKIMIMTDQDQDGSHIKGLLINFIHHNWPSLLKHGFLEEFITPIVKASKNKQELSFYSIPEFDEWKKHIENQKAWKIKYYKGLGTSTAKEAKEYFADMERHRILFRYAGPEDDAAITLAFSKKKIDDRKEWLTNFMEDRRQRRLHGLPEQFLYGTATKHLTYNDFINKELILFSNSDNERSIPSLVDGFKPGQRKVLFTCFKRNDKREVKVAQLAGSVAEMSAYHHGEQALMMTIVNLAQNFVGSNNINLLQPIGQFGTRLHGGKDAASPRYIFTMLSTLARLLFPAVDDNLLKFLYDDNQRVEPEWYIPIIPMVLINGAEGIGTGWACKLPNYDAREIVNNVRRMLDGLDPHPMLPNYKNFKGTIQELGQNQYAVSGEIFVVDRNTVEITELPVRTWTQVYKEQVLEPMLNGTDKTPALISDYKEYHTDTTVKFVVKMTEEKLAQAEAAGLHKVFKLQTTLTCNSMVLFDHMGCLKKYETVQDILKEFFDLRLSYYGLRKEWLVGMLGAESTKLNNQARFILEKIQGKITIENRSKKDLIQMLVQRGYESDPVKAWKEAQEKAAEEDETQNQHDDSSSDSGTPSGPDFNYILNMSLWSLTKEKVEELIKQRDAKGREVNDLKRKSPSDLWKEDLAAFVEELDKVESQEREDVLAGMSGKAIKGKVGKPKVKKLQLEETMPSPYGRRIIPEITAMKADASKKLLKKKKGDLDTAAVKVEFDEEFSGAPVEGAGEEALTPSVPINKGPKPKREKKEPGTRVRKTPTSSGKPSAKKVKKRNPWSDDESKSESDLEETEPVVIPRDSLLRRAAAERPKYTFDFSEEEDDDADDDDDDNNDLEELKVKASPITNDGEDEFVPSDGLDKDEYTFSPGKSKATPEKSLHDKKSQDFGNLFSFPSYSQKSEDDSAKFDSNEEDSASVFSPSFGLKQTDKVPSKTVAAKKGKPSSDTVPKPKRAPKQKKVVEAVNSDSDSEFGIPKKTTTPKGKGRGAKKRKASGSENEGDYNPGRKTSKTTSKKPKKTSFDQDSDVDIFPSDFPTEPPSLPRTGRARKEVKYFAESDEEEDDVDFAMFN

inhibition [2] [%] | Compound | inhibition of growth at 100 µg/mL (HepG2) [%] | inhibition of growth at 100 µg/mL (NCI-H460) [%] | inhibition of growth at 100 µg/mL (HCT-116) [%] | inhibition of growth at 100 µg/mL (Huh-7) [%] | inhibition of growth at 100 µg/mL (Caco-2) [%] | inhibition of growth at 100 µg/mL (MCF7) [%] | inhibition of growth at 100 µg/mL (PC-3) [%] | inhibition of growth at 100 µg/mL (MG-63) [%] | inhibition of growth at 100 µg/mL (MDA-MB-231) [%] | inhibition of growth at 100 µg/mL (BT-474) [%] | inhibition of growth at 100 µg/mL (HNO 97 cell line) [%] | inhibition of growth at 100 µg/mL (A549) [%] | inhibition at 100 ug/ml [1] [%] | inhibition of growth at 100 µg/mL (A-375) [%]
 | CN(C)c1ccc(C2NC(N)=Nc3nc4ccccc4n32)cc1 (configuration not stated) | 78.8 | 70.9 | 64.1 | 70 | 64 | 63.2 | 57.5 | 58 | 61 | 60.1 | 80.8 | 67.7 | 14.2 | 68.5
 | COc1cc(C2NC(N)=Nc3nc4ccccc4n32)cc(OC)c1OC (configuration not stated) | 73.9 | 69.6 | 63.6 | 70.1 | 69 | 72 | 60 | 59.4 | 79.4 | 69.9 | 82.2 | 67.5 | 32.7 | 61.8
 | NC1=Nc2nc3ccccc3n2C(c2cccc(Cl)c2Cl)N1 (configuration not stated) | 72.5 | 73.1 | 59.6 | 67 | 61.1 | 63.6 | 71.5 | 63.2 | 75.1 | 60.4 | 78.6 | 67.8 | 38.4 | 68.7
77.5 | CC(C)c1ccc(C2N=C(N)Nc3nc4ccccc4n32)cc1 (configuration not stated) | 63.7 | 65.6 | 55.6 | 54.7 | 59.2 | 55.4 | 71.7 | 58 | 78.6 | 61.7 | 75.7 | 49 | 7.69 | 58.1
 | NC1=Nc2nc3ccccc3n2C(c2cccs2)N1 (configuration not stated) | 64.9 | 58.8 | 64.4 | 65 | 62.9 | 56.2 | 48 | 49.9 | 38.7 | 5.76 | 71.8 | 61.4 | 59.6 | 56.4
 | COc1cc(C2NC(N)=Nc3nc4ccccc4n32)ccc1OCc1ccccc1 (configuration not stated) | 41.3 | 30.4 | 39 | 26.9 | 40.1 | 48.9 | 44.6 | 13.1 | 51.7 | 1 | 63.2 | 30.5 | 21 | 45.1
 | Cc1ccc(C2NC(N)=Nc3nc4ccccc4n32)o1 (configuration not stated) | 61.5 | 61.6 | 60.9 | 50 | 56.2 | 51.6 | 55.2 | 50.6 | 27.4 | 13.2 | 57.5 | 56.2 | 59.7 | 58.5
 | NC1=Nc2nc3ccccc3n2C(c2cccc3ccccc23)N1 (configuration not stated) | 59 | 61.1 | 55.7 | 58.7 | 59.9 | 53.7 | 59 | 58 | 76.2 | 61.4 | 61.1 | 54.4 | 45.9 | 52.8
 | NC1=Nc2nc3ccccc3n2C(c2ccc3ccccc3c2)N1 (configuration not stated) | 45 | 65 | 50.2 | 54.6 | 61 | 48.8 | 54.8 | 58.6 | 66.6 | 55.3 | 57.3 | 56.7 | 55.7 | 44.1
 | NC1=NC(c2ccccc2)n2c(nc3ccccc32)N1 (configuration not stated) | 66.6 | 65.3 | 61.1 | 68.1 | 61.7 | 60.2 | 72.7 | 56 | 68.2 | 51.4 | 78.1 | 59.1 | 24.4 | 63.4
 | COc1ccc(OC)c(C2N=C(N)Nc3nc4ccccc4n32)c1 (configuration not stated) | 63.6 | 63.2 | 49.3 | 54.8 | 52.5 | 54.4 | 46 | 46.8 | 64.9 | 46.3 | 76.6 | 54.9 | 10.2 | 52.1
 | NC1=Nc2nc3ccccc3n2C(c2ccc([N+](=O)[O-])cc2)N1 (configuration not stated) | 74.3 | 74.7 | 61.3 | 56.9 | 65.9 | 61.2 | 61.2 | 53.4 | 74.6 | 60.2 | 70.4 | 65.6 | 40.3 | 58.6
 | NC1=Nc2nc3ccccc3n2C(c2c[nH]c3ccccc23)N1 (configuration not stated) | 69.2 | 63.5 | 64.3 | 65.3 | 61.7 | 56.5 | 54.2 | 56.2 | 34.3 | 34.4 | 75.3 | 58.8 | 51.3 | 69.2
 | NC1=NC(c2cccnc2)n2c(nc3ccccc32)N1 (configuration not stated) | 67.8 | 58.1 | 65.2 | 57.2 | 53.7 | 60.7 | 52.2 | 42.4 | 30.5 | 0.93 | 64.8 | 55.6 | 52.7 | 56

Reference: ChEMBL document CHEMBL5625190, “Novel fused imidazotriazines acting as promising top. II inhibitors and apoptotic inducers with greater selectivity against head and neck tumors: Design, synthesis, and biological assessments” (Eur J Med Chem, 2023)
